# According to article PMC6591251, “Discovery of potent necroptosis inhibitors targeting RIPK1 kinase activity for the treatment of inflammatory disorder and cancer metastasis” (Cell Death & Disease, 2019):
# Tests used:
# Experiment in all cases: RBC kinase panel
# Type in all cases: biochemical
# Conditions in all cases: ATP 10 μM, Data1, Data2
# COT1/MAP3K8 = target: T1, COT1/MAP3K8 (Homo sapiens, UniProt P41279)
# T1 construct: purchased Reaction Biology Corporation
# Outline: (§1)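 Using 10 μM ATP for every kinase, activity of 369 human kinases was measured in duplicate in the presence of 1 μM test compound.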
# PAK2 = target: T2, PAK2 (Homo sapiens, UniProt Q13177)
# T2 construct: purchased Reaction Biology Corporation
# Outline: as §1
# ERK5/MAPK7 = target: T3, ERK5/MAPK7 (Homo sapiens, UniProt Q13164)
# T3 construct: purchased Reaction Biology Corporation
# Outline: as §1
# WNK1 = target: T4, WNK1 (Homo sapiens, UniProt Q9H4A3)
# T4 construct: purchased Reaction Biology Corporation
# Outline: as §1
# NEK9 = target: T5, NEK9 (Homo sapiens, UniProt Q8TD19)
# T5 construct: purchased Reaction Biology Corporation
# Outline: as §1
# PHKg2 = target: T6, PHKg2 (Homo sapiens, UniProt P15735)
# T6 construct: purchased Reaction Biology Corporation
# Outline: as §1
# ALK3/BMPR1A = target: T7, ALK3/BMPR1A (Homo sapiens, UniProt P36894)
# T7 construct: purchased Reaction Biology Corporation
# Outline: as §1
# SSTK/TSSK6 = target: T8, SSTK/TSSK6 (Homo sapiens, UniProt Q9BXA6)
# T8 construct: purchased Reaction Biology Corporation
# Outline: as §1
# TAOK1 = target: T9, TAOK1 (Homo sapiens, UniProt Q7L7X3)
# T9 construct: purchased Reaction Biology Corporation
# Outline: as §1
# EPHB1 = target: T10, EPHB1 (Homo sapiens, UniProt P54762)
# T10 construct: purchased Reaction Biology Corporation
# Outline: as §1
# JNK1 = target: T11, JNK1 (Homo sapiens, UniProt P45983)
# T11 construct: purchased Reaction Biology Corporation
# Outline: as §1
# PKG1b = target: T12, PKG1b (Homo sapiens, UniProt Q13976)
# T12 construct: purchased Reaction Biology Corporation
# Outline: as §1
# PKN3/PRK3 = target: T13, PKN3/PRK3 (Homo sapiens, UniProt Q6P5Z2)
# T13 construct: purchased Reaction Biology Corporation
# Outline: as §1
# ALK2/ACVR1 = target: T14, ALK2/ACVR1 (Homo sapiens, UniProt Q04771)
# T14 construct: purchased Reaction Biology Corporation
# Outline: as §1
# MRCKb/CDC42BPB = target: T15, MRCKb/CDC42BPB (Homo sapiens, UniProt Q9Y5S2)
# T15 construct: purchased Reaction Biology Corporation
# Outline: as §1
# PKCeta = target: T16, PKCeta (Homo sapiens, UniProt P24723)
# T16 construct: purchased Reaction Biology Corporation
# Outline: as §1
# HIPK2 = target: T17, HIPK2 (Homo sapiens, UniProt Q9H2X6)
# T17 construct: purchased Reaction Biology Corporation
# Outline: as §1
# MYLK3 = target: T18, MYLK3 (Homo sapiens, UniProt Q32MK0)
# T18 construct: purchased Reaction Biology Corporation
# Outline: as §1
# SIK1 = target: T19, SIK1 (Homo sapiens, UniProt P57059)
# T19 construct: purchased Reaction Biology Corporation
# Outline: as §1
# c-Kit = target: T20, c-Kit (Homo sapiens, UniProt P10721)
# T20 construct: purchased Reaction Biology Corporation
# Outline: as §1
# CLK3 = target: T21, CLK3 (Homo sapiens, UniProt P49761)
# T21 construct: purchased Reaction Biology Corporation
# Outline: as §1
# PKCiota = target: T22, PKCiota (Homo sapiens, UniProt P41743)
# T22 construct: purchased Reaction Biology Corporation
# Outline: as §1
# IKKb/IKBKB = target: T23, IKKb/IKBKB (Homo sapiens, UniProt O14920)
# T23 construct: purchased Reaction Biology Corporation
# Outline: as §1
# MSK1/RPS6KA5 = target: T24, MSK1/RPS6KA5 (Homo sapiens, UniProt O75582)
# T24 construct: purchased Reaction Biology Corporation
# Outline: as §1
# MKK4 = target: T25, MKK4 (Homo sapiens, UniProt P45985)
# T25 construct: purchased Reaction Biology Corporation
# Outline: as §1
# FGFR3 = target: T26, FGFR3 (Homo sapiens, UniProt P22607)
# T26 construct: purchased Reaction Biology Corporation
# Outline: as §1
# STK39/STLK3 = target: T27, STK39/STLK3 (Homo sapiens, UniProt Q9UEW8)
# T27 construct: purchased Reaction Biology Corporation
# Outline: as §1
# PKN1/PRK1 = target: T28, PKN1/PRK1 (Homo sapiens, UniProt Q16512)
# T28 construct: purchased Reaction Biology Corporation
# Outline: as §1
# CDK5/p25 = target: T29, CDK5/p25 (Homo sapiens, UniProt Q00535)
# T29 construct: purchased Reaction Biology Corporation
# Outline: as §1
# MEKK2 = target: T30, MEKK2 (Homo sapiens, UniProt Q9Y2U5)
# T30 construct: purchased Reaction Biology Corporation
# Outline: as §1
# SIK3 = target: T31, SIK3 (Homo sapiens, UniProt Q9Y2K2)
# T31 construct: purchased Reaction Biology Corporation
# Outline: as §1
# PKCzeta = target: T32, PKCzeta (Homo sapiens, UniProt Q05513)
# T32 construct: purchased Reaction Biology Corporation
# Outline: as §1
# AKT1 = target: T33, AKT1 (Homo sapiens, UniProt P31749)
# T33 construct: purchased Reaction Biology Corporation
# Outline: as §1
# T17 sequence (Q9H2X6 whole entry): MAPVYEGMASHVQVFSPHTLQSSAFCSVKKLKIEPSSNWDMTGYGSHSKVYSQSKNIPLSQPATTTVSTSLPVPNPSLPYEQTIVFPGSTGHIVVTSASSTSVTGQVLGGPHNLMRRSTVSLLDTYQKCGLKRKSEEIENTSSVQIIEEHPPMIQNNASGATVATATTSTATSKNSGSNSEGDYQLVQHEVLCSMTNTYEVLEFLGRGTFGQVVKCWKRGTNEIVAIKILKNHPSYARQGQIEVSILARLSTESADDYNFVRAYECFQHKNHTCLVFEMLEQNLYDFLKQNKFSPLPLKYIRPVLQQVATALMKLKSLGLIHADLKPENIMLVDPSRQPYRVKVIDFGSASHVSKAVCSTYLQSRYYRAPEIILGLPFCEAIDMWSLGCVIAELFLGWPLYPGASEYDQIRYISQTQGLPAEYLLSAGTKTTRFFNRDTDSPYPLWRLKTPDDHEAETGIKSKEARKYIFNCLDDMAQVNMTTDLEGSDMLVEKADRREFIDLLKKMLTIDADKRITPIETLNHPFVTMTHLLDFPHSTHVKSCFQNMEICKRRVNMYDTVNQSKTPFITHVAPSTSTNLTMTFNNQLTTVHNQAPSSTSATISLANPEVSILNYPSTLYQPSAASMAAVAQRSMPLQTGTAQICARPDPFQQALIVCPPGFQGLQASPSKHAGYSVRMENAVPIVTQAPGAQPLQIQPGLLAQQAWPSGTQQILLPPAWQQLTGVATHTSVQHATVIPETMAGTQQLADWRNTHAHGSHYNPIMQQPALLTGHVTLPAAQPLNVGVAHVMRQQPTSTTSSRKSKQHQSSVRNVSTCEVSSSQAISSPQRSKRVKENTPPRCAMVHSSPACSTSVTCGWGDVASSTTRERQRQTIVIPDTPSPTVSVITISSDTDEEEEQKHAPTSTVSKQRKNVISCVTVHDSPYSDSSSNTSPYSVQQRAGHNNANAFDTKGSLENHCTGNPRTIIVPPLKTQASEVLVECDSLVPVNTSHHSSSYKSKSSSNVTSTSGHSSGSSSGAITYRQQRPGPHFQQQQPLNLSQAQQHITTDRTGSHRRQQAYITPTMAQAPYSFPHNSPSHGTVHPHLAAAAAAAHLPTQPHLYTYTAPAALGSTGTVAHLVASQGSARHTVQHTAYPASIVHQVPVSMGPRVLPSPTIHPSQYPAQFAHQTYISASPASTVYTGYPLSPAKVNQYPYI
# T9 sequence (Q7L7X3 whole entry): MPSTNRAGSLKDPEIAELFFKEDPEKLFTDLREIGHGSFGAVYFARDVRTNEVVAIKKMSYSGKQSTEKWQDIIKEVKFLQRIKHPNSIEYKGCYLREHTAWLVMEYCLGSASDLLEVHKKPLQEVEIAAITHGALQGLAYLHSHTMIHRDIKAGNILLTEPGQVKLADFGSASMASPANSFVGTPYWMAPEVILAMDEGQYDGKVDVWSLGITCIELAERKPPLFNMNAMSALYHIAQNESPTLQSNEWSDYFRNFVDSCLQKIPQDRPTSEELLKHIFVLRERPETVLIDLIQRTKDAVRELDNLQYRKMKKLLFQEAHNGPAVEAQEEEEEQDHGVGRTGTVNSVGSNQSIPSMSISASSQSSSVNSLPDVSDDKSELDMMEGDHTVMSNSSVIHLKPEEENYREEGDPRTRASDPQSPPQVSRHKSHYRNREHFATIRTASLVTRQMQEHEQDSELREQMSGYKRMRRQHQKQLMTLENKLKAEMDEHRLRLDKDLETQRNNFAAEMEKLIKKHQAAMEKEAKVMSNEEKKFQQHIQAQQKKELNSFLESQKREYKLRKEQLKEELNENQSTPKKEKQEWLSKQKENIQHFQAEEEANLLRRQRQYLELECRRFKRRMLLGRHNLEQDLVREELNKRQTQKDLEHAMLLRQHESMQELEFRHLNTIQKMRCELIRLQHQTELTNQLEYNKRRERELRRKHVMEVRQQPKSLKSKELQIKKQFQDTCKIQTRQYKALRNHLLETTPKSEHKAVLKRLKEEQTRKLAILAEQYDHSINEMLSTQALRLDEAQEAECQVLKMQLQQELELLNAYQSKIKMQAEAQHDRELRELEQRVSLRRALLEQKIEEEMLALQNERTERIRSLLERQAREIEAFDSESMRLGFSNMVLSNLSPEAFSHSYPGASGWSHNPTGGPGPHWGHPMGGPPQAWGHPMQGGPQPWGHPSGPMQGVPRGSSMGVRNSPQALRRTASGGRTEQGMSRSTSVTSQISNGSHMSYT
# T12 sequence (Q13976 1-686 isoform Q13976-2): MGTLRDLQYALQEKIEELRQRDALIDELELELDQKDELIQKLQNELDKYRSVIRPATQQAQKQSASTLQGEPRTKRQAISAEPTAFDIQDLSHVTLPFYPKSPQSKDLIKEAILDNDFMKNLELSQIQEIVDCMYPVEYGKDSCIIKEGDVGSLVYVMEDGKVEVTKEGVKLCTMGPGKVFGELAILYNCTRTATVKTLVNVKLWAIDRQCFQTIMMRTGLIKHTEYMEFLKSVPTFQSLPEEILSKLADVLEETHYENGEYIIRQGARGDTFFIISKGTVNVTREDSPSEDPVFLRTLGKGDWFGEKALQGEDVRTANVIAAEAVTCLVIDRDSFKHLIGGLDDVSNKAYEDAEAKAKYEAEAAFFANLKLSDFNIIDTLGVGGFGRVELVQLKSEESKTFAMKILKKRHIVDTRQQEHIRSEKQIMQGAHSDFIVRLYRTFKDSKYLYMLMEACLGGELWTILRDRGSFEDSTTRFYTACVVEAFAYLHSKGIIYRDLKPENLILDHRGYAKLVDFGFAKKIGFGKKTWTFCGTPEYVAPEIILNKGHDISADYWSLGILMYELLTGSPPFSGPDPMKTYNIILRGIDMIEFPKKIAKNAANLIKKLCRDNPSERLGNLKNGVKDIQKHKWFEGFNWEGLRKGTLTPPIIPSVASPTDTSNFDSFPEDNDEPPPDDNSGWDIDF
# T18 sequence (Q32MK0 whole entry): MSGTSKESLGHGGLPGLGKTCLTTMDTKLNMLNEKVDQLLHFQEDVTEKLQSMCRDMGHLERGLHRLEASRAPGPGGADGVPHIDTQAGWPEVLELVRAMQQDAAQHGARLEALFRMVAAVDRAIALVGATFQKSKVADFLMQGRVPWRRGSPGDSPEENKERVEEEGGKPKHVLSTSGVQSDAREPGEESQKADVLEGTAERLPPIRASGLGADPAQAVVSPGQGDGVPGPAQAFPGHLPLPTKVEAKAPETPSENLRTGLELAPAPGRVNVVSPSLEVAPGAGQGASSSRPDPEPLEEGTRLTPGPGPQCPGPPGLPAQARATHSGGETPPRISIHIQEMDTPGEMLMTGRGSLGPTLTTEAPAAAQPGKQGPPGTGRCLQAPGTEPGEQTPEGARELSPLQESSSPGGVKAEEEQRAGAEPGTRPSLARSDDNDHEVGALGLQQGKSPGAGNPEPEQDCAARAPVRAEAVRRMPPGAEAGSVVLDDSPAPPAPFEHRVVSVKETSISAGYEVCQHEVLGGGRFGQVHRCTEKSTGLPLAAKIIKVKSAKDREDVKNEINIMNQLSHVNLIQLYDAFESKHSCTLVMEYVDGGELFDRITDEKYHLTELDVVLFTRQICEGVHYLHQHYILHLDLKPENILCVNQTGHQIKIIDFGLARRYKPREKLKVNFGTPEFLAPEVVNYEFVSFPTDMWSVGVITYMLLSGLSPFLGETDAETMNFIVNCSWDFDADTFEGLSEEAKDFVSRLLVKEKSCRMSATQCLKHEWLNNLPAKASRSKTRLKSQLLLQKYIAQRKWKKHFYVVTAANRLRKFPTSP
# T14 sequence (Q04771 21-509): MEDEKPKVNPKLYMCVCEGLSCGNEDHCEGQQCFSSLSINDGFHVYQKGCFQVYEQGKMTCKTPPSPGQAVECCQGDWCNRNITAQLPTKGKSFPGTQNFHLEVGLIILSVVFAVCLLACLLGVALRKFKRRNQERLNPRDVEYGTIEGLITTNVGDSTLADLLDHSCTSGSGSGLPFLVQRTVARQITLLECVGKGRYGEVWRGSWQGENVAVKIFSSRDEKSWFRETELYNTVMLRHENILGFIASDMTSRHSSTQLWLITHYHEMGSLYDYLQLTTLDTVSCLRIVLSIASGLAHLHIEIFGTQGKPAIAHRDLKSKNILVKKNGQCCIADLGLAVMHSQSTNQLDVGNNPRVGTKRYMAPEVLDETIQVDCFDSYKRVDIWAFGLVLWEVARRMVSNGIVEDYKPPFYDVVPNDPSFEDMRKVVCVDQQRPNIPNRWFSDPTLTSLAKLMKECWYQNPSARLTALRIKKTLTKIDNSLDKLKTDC
# T7 sequence (P36894 24-532): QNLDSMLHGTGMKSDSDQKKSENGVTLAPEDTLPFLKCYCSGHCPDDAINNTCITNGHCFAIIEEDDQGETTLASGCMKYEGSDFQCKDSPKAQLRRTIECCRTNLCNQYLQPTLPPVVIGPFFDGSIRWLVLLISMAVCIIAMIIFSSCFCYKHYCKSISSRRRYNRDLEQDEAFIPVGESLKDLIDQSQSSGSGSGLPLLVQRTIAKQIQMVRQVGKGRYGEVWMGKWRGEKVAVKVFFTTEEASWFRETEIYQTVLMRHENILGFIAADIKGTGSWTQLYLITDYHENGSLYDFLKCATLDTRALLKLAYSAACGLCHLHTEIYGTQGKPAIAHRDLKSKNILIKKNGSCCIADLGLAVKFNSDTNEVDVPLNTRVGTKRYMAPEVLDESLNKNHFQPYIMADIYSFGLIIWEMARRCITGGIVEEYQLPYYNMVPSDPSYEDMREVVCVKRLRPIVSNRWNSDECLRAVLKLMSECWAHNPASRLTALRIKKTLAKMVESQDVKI
# T8 sequence (Q9BXA6 whole entry): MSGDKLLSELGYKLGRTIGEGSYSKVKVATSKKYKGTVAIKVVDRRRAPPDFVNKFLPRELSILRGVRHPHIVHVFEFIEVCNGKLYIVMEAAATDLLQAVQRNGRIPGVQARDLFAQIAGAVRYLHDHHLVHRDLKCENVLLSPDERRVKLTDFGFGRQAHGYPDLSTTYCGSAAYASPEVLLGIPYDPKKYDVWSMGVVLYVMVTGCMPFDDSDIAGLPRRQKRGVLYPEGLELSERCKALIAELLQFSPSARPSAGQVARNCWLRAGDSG
smiles,measurement,setting,value
"CC(=O)Nc1nc2ccc(-c3cnc(C)c(NC(=O)OC4CCCCC4)c3)cc2s1 [PK68, cyclohexyl (5-(2-acetamidobenzo[d]thiazol-6-yl)-2-methylpyridin-3-yl)carbamate]",Activity%,COT1/MAP3K8; 1 μM,94.93%
same,activity at 1 µM,COT1/MAP3K8,95.2%
same,Activity%,PAK2; 1 μM,104.24%
same,activity at 1 µM,PAK2,105%
same,Activity%,ERK5/MAPK7; 1 μM,98.25%
same,activity at 1 µM,ERK5/MAPK7,99.3%
same,Activity%,WNK1; 1 μM,111.38%
same,activity at 1 µM,WNK1,112%
same,Activity%,NEK9; 1 μM,90.50%
same,activity at 1 µM,NEK9,90.9%
same,Activity%,PHKg2; 1 μM,98.74%
same,activity at 1 µM,PHKg2,100%
same,Activity%,ALK3/BMPR1A; 1 μM,103.05%
same,activity at 1 µM,ALK3/BMPR1A,105%
same,Activity%,SSTK/TSSK6; 1 μM,91.18%
same,activity at 1 µM,SSTK/TSSK6,91.3%
same,Activity%,TAOK1; 1 μM,79.31%
same,activity at 1 µM,TAOK1,79.8%
same,Activity%,EPHB1; 1 μM,95.01%
same,activity at 1 µM,EPHB1,95.5%
same,Activity%,JNK1; 1 μM,97.06%
same,activity at 1 µM,JNK1,98.7%
same,Activity%,PKG1b; 1 μM,84.59%
same,activity at 1 µM,PKG1b,85%
same,Activity%,PKN3/PRK3; 1 μM,92.58%
same,activity at 1 µM,PKN3/PRK3,94.1%
same,Activity%,ALK2/ACVR1; 1 μM,101.72%
same,activity at 1 µM,ALK2/ACVR1,103%
same,Activity%,MRCKb/CDC42BPB; 1 μM,101.65%
same,activity at 1 µM,MRCKb/CDC42BPB,104%
same,Activity%,PKCeta; 1 μM,90.40%
same,activity at 1 µM,PKCeta,92.8%
same,Activity%,HIPK2; 1 μM,110.22%
same,activity at 1 µM,HIPK2,111%
same,Activity%,MYLK3; 1 μM,100.10%
same,activity at 1 µM,MYLK3,101%
same,Activity%,SIK1; 1 μM,97.74%
same,activity at 1 µM,SIK1,98.4%
same,Activity%,c-Kit; 1 μM,75.47%
same,activity at 1 µM,c-Kit,77.5%
same,Activity%,CLK3; 1 μM,99.85%
same,activity at 1 µM,CLK3,101%
same,Activity%,PKCiota; 1 μM,92.87%
same,activity at 1 µM,PKCiota,97%
same,Activity%,IKKb/IKBKB; 1 μM,107.97%
same,activity at 1 µM,IKKb/IKBKB,109%
same,Activity%,MSK1/RPS6KA5; 1 μM,93.86%
same,activity at 1 µM,MSK1/RPS6KA5,94%
same,Activity%,MKK4; 1 μM,98.91%
same,activity at 1 µM,MKK4,99.1%
same,Activity%,FGFR3; 1 μM,90.12%
same,activity at 1 µM,FGFR3,90.5%
same,Activity%,STK39/STLK3; 1 μM,92.54%
same,activity at 1 µM,STK39/STLK3,95.8%
same,Activity%,PKN1/PRK1; 1 μM,96.02%
same,activity at 1 µM,PKN1/PRK1,97.8%
same,Activity%,CDK5/p25; 1 μM,92.68%
same,activity at 1 µM,CDK5/p25,94.1%
same,Activity%,MEKK2; 1 μM,85.76%
same,activity at 1 µM,MEKK2,89.8%
same,Activity%,SIK3; 1 μM,94.84%
same,activity at 1 µM,SIK3,99.4%
same,Activity%,PKCzeta; 1 μM,102.04%
same,activity at 1 µM,PKCzeta,103%
same,Activity%,AKT1; 1 μM,99.12%
same,activity at 1 µM,AKT1,99.2%
